Measured values published in patent US10973832B2, “Muscarinic M1 receptor agonists” (Heptares Therapeutics Limited, priority 2011, dated 2021).

Key:
Male Wistar rats = test: Novel object recognition; type: in vivo
Method: The novel object recognition paradigm is based on the greater spontaneous exploration of a novel object, compared with a familiar object, shown by rodents (Ennaceur and Delacour, 1988). […] Male Wistar rats were assessed for cognitive ability in a test apparatus comprising an open-field arena placed in a sound-attenuated room under dimmed lighting. Images of the open-field were captured by digital camera, and viewed on a monitor in an adjoining room. Each rat was subjected to the procedure separately and care taken to remove any olfactory/taste cues by cleaning the arena and test objects with alcohol between trials and rats. All tests are video scored blind to treatment. Following a 10-minute habituation period, each rat was placed into the test arena in the presence of two identical objects (plastic shapes). Each rat was placed facing the same direction at the same position in the arena, and the time spent actively exploring the objects during a 5-minute training period (T1) was recorded. The rat is returned to its home cage between tests. After 24 hours, each rat was again placed in the test arena for 5 minutes (T2) in the presence of one of the familiar objects and a novel object, and the time spent exploring both objects again recorded. The presentation order and position of the objects (left/right) was randomized between rats to prevent bias from order or place preference. Doses of 3, 10 or 30 mg/kg of test compound were administered by oral gavage 90 minutes prior to training (n=8). Donepezil (0.1 mg/kg) and galanthamine (3 mg/kg) were administered via intraperitoneal injection 60 minutes prior to training. Vehicle-treated controls were employed for comparison.

[1] = test system: CA1 region of rat hippocampal slices; test: CA1 cell firing (fEPSP amplitude); type: cell-based; details: five point cumulative concentration-response, 6 slices averaged
Method: Rat hippocampal slices of […] thickness were cut in chilled (<4° C.) artificial cerebrospinal fluid (aCSF, composition in mM: NaCl 127, KCl 1.6, KH2PO4 1.24, MgSO4 1.3, CaCl2 2.4, NaHCO3 26 and D-glucose 10) using vibratome. Slices were maintained in oxygenated (95% O2/5% CO2) aCSF at room temperature for at least 1 hr prior to electrophysiological recording, after which they were transferred to an interface chamber and constantly perfused with warmed (30° C.) oxygenated aCSF at a flow rate of 1.5-3 ml·min−1. Schaffer collaterals were then stimulated (1-20 V, 0.1 ms pulse width, 0.033 Hz) with a concentric bipolar electrode to evoke field excitatory post synaptic potentials (fEPSPs) recorded from the stratum radiatum of the CA1 region.
Experiments were performed to examine the effect of compound compared to […] carbachol (CCh), on the amplitude of fEPSPs in the CA1 region of rat hippocampal slices. 1 μM CCh was initially applied until steady-state, followed by wash, before performing a five point cumulative concentration-response to compound. Each compound was tested on 6 slices and results averaged. Drug preparation; compound was dissolved in 100% DMSO at a stock concentration of 30 mM, and diluted according to requirements, carbamoylcholine chloride (CCh) was purchased from Sigma (Cat #C4382) and dissolved at a stock concentration of 1 mM in ddH2O.

[2] = target: T1, human muscarinic M2 receptor (Homo sapiens, UniProt P08172); test: Phospho-ERK1/2 assay, muscarinic M2; type: cell-based; details: for EC50: CHO cells expressing human M2, phospho-ERK1/2 Alphascreen, read-out: pEC50 M2 (converted); for Emax: CHO, read-out: % Emax cf. ACh (M2)
T1 sequence (P08172 1-466): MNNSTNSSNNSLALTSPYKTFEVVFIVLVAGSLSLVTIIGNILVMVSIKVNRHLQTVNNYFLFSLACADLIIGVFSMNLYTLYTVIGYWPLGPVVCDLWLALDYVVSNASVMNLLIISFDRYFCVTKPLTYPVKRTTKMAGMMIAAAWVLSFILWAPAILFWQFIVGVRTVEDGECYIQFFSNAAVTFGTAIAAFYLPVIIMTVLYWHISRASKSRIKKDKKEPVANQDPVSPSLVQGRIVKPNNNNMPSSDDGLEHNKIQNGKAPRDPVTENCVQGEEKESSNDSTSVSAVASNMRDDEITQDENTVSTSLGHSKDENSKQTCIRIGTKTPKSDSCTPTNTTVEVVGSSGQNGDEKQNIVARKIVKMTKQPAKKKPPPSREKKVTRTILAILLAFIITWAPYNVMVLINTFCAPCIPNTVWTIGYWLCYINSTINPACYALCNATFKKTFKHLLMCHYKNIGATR
Method: (§1) Functional assays were performed using the Alphascreen Surefire phospho-ERK1/2 assay (Crouch & Osmond, Comb. Chem. High Throughput Screen, 2008). ERK1/2 phosphorylation is a downstream consequence of both Gq/11 and Gi/o protein coupled receptor activation, making it highly suitable for the assessment of M1, M3 (Gq/11 coupled) and M2, M4 receptors (Gi/o coupled), rather than using different assay formats for different receptor subtypes. CHO cells stably expressing the human muscarinic M1, M2, M3 or M4 receptor were plated (25K/well) onto 96-well tissue culture plates in MEM-alpha+10% dialysed FBS. Once adhered, cells were serum-starved overnight. Agonist stimulation was performed by the addition of 5 μL agonist to the cells for 5 min (37° C.). Media was removed and 50 μL of lysis buffer added. After 15 min, a 4 μL sample was transferred to 384-well plate and 7 μL of detection mixture added. Plates were incubated for 2 h with gentle agitation in the dark and then read on a PHERAstar plate reader.
(§2) pEC50 and Emax figures were calculated from the resulting data for each receptor subtype.

[3] = target: T2, human muscarinic M4 receptor (Homo sapiens, UniProt P08173); test: Phospho-ERK1/2 assay, muscarinic M4; type: cell-based; details: for EC50: CHO cells expressing human M4, phospho-ERK1/2 Alphascreen, read-out: pEC50 M4 (converted); for Emax: CHO, read-out: % Emax cf. ACh (M4)
T2 construct: expressed in transfected cells
T2 sequence (P08173 1-479): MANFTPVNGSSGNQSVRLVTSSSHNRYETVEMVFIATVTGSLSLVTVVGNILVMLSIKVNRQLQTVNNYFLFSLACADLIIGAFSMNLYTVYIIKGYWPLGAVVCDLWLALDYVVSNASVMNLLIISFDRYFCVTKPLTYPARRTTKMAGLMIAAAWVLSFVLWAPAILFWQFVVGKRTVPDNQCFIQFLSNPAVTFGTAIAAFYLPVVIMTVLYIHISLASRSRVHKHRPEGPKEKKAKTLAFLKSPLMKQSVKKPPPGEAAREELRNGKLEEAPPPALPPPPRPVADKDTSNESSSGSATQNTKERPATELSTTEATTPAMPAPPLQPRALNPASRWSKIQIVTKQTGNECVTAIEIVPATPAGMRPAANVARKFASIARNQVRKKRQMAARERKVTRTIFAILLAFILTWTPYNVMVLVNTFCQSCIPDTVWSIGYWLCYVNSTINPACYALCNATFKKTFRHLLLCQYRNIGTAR
Method: as §1, §2

[4] = target: T3, human muscarinic M3 receptor (Homo sapiens, UniProt P20309); test: Phospho-ERK1/2 assay, muscarinic M3; type: cell-based; details: for EC50: CHO cells expressing human M3, phospho-ERK1/2 Alphascreen, read-out: pEC50 M3 (converted); for Emax: CHO, read-out: % Emax cf. ACh (M3)
T3 construct: expressed in transfected cells
Method: as §1, §2

[5] = target: T4, human muscarinic M1 receptor (Homo sapiens, UniProt P11229); test: Phospho-ERK1/2 assay, muscarinic M1; type: cell-based; details: for EC50: CHO cells expressing human M1, phospho-ERK1/2 Alphascreen, read-out: pEC50 M1 (converted); for Emax: CHO, read-out: % Emax cf. ACh (M1)
T4 sequence (P11229 1-460): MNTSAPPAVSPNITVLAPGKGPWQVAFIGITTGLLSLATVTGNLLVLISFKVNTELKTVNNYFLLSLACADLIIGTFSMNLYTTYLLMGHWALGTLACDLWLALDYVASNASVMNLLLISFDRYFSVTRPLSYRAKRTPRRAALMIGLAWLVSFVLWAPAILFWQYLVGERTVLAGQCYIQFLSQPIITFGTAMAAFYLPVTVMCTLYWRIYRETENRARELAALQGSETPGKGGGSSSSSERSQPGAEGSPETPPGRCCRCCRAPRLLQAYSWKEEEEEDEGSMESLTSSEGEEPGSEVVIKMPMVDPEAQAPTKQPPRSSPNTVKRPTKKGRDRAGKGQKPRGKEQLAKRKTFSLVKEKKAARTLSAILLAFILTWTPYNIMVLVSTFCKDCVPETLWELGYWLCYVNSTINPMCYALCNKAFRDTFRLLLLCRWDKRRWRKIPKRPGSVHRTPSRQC
Method: as §1, §2

T3 sequence (P20309 whole entry): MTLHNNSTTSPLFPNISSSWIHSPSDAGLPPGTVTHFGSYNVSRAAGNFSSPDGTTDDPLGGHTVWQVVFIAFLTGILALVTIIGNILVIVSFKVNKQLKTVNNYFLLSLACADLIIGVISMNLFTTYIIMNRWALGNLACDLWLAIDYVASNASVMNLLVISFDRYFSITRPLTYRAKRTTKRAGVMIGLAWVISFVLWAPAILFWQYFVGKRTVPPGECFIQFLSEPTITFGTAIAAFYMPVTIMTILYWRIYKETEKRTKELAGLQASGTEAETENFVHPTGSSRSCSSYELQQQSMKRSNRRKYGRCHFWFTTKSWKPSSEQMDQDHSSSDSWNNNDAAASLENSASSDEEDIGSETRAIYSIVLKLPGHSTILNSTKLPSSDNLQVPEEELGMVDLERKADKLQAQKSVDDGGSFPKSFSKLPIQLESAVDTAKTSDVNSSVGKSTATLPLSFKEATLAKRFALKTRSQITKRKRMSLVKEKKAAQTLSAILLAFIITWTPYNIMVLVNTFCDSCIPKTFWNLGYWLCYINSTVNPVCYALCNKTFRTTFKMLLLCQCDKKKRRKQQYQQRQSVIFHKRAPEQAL

Compound | novel object recognition memory vs vehicle-treated controls (Male Wistar rats; 0.1 mg/kg intraperitoneal 60 minutes prior to training) | EC50 [1] | EC50 [2] | Emax [2] | EC50 [3] | Emax [3] | EC50 [4] | Emax [4] | EC50 [5] | Emax [5] | novel object recognition memory vs vehicle-treated controls (Male Wistar rats; 3 mg/kg intraperitoneal 60 minutes prior to training, p<0.05)
COc1cc2c(cc1OC)C(=O)C(CC1CCN(Cc3ccccc3)CC1)C2 (stereo not drawn) [Donepezil, donepezil] | without effect on novel object recognition | – | – | – | – | – | – | – | – | – | –
CCOC(=O)N1CCCC(N2CCC(C(=O)NCC(C)C)CC2)CC1 (stereo not drawn) [Example 6, ethyl 4-(4-((2-methylpropyl)carbamoyl)piperidin-1-yl)azepane-1-carboxylate] | – | 4.1 µM | > 20 µM | 10% | 1050 nM | 76% | > 20 µM | 33% | 85.1 nM | 113% | –
CCOC(=O)N1CCCC(N2CCC(F)(C(=O)NCC(C)C)CC2)CC1 (stereo not drawn) [Example 40, ethyl 4-(4-fluoro-4-((2-methylpropyl)carbamoyl)piperidin-1-yl)azepane-1-carboxylate] | – | 9.4 µM | > 20 µM | 13% | 851 nM | 89% | > 20 µM | 9% | 45.7 nM | 106% | –
CCOC(=O)N1CCCC(N2CCC(C)(C(=O)NC3(C)CCC3)CC2)CC1 (stereo not drawn) [Example 78, ethyl 4-{4-methyl-4-[(1-methylcyclobutyl)carbamoyl]piperidin-1-yl}azepane-1-carboxylate] | – | – | > 20 µM | 5% | 417 nM | 51% | > 20 µM | 0% | 42.7 nM | 115% | –
CCOC(=O)N1CCCC(N2CCC(OC)(C(=O)NC3(C)CCC3)CC2)CC1 (stereo not drawn) [Example 79, ethyl 4-{4-methoxy-4-[(1-methylcyclobutyl)carbamoyl]piperidin-1-yl}azepane-1-carboxylate] | – | – | > 20 µM | 7% | 871 nM | 27% | > 20 µM | 27% | 97.7 nM | 113% | –
CC#CCOC(=O)N1CCCC(N2CCC(OC)(C(=O)NC3(C)CCC3)CC2)CC1 (stereo not drawn) [Example 80, but-2-yn-1-yl 4-{4-methoxy-4-[(1-methylcyclobutyl)carbamoyl]piperidin-1-yl}azepane-1-carboxylate] | – | – | > 20 µM | 15% | 525 nM | 71% | > 20 µM | 7% | 37.2 nM | 89% | –
CCOC(=O)N1CCCC(N2CCC(OC)(C(=O)NCC3(C)CCC3)CC2)CC1 (stereo not drawn) [Example 81, ethyl 4-(4-methoxy-4-{[(1-methylcyclobutyl)methyl]carbamoyl}piperidin-1-yl)azepane-1-carboxylate] | – | – | > 20 µM | 0% | > 20000 nM | 9% | > 20 µM | 7% | 141 nM | 110% | –
CCOC(=O)N1CCCC(N2CCC(C#N)(C(=O)NC3(C)CCC3)CC2)CC1 (stereo not drawn) [Example 82, ethyl 4-{4-cyano-4-[(1-methylcyclobutyl)carbamoyl]piperidin-1-yl}azepane-1-carboxylate] | – | – | > 20 µM | 16% | 1620 nM | 81% | > 20 µM | 2% | 55 nM | 89% | –
COc1ccc2c3c1O[C@H]1C[C@@H](O)C=C[C@@]31CCN(C)C2 [galanthamine] | – | – | – | – | – | – | – | – | – | – | significantly improved novel object recognition memory
